US6506766B1 (Abbott Laboratories, priority 1998, dated 2003)
Read-outs that look alike come from different tables or passages of the source.

How the values were obtained:
[1] = target: T1, human progesterone receptor-A [PRA] isoform (Homo sapiens, UniProt P06401); assay: Radioligand binding with human progesterone receptor cytosol ([3H]-progesterone competition); conditions: read-out: Ki (nM) PR
T1 construct: host or cells: insect SF21 cells (baculovirus)
T1 sequence (P06401 1-769 isoform P06401-2): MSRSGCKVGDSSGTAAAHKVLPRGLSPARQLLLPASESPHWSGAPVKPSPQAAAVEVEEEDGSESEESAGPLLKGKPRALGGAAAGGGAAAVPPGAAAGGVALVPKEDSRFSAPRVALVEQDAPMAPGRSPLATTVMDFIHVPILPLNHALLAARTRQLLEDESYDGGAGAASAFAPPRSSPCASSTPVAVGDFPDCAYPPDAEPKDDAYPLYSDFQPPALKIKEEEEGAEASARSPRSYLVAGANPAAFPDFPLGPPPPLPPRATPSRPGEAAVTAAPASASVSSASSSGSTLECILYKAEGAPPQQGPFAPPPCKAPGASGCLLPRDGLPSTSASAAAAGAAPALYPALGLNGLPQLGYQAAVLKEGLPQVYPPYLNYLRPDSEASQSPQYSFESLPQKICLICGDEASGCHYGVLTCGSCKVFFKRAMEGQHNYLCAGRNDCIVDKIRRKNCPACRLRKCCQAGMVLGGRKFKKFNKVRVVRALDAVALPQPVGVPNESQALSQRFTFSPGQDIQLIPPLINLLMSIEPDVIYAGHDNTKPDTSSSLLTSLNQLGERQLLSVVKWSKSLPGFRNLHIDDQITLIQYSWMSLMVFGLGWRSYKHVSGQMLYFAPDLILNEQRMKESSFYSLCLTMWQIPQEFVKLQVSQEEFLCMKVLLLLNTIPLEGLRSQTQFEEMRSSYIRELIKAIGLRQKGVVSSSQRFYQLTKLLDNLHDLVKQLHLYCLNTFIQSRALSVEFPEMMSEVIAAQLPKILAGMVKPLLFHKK

[2] = target: T2, human glucocorticoid receptor-α [GRX] isoform (Homo sapiens, UniProt P04150); assay: Radioligand binding with human glucocorticoid receptor cytosol ([3H]-dexamethasone competition)
T2 construct: host or cells: insect SF21 cells (baculovirus)
T2 sequence (P04150 1-777): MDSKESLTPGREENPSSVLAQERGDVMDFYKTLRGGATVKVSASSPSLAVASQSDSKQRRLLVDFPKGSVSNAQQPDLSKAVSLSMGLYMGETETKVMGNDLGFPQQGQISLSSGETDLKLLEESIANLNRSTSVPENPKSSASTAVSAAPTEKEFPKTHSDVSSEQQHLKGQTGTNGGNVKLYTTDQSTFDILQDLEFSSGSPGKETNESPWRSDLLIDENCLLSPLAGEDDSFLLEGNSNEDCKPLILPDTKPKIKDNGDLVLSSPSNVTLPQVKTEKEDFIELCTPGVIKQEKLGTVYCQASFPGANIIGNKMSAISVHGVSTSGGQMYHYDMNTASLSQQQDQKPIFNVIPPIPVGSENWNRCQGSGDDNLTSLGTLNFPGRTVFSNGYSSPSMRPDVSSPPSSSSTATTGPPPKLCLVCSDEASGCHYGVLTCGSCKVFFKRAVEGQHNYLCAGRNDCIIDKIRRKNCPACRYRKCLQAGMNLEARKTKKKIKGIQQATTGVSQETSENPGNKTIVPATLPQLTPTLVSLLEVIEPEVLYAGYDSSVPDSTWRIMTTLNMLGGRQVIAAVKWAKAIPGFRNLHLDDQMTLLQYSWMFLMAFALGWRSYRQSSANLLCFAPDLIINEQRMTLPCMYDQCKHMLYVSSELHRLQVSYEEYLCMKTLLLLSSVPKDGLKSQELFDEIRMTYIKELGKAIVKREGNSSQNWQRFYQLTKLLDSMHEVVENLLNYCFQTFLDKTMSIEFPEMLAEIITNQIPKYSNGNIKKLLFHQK

[3] = PRA cytosol expressed in insect SF21 cells, [3H]Prog ~0.8 nM, 4° C. overnight, Ki by Cheng-Prusoff, KL ~4.5 nM
[4] = GRX cytosol expressed in insect SF21 cells, [3H]-Dex ~0.9 nM, 4° C. overnight, Ki by Cheng-Prusoff, KL ~[…], read-out: Ki (nM) GR

Row | Compound | Ki [1, 3] | Ki [2, 4] | further results
1 | 2,5-Dihydro-9-hydroxy-10-methoxy-2,2,4-trimethyl-5-((2-fluorophenyl)methyl)-1H-[1]benzopyrano[3,4-f]quinoline [Example 385] | 170 nM |  | Ki ([2]; read-out: Ki (nM) GR): 0.9 nM
2 | 2,5-Dihydro-9-hydroxy-10-methoxy-5-propyl-2,2,4-trimethyl-1H-[1]benzopyrano[3,4-f]quinoline [Example 245] |  |  | Ki [1]: 119 nM; Ki ([2]; read-out: Ki (nM) GR): 0.95 nM
3 | 2,5-Dihydro-10-methoxy-5-(3,3-dimethyl-6-cyclohexenyl)-2,2,4-trimethyl-1H-[1]benzopyrano[3,4-f]quinoline [Example 146] |  |  | Ki [1]: 8300 nM; Ki ([2]; read-out: Ki (nM) GR): 8.3 nM
4 | 5-Butyl-2,5-dihydro-9-hydroxy-10-methoxy-2,2,4-trimethyl-1H-[1]benzopyrano[3,4-f]quinoline [Example 251] |  |  | Ki [1]: 163 nM; Ki ([2]; read-out: Ki (nM) GR): 0.87 nM
5 | 9,10-Dimethoxy-5-[3-cyclohexenyl]-methoxy-2,2,4-trimethyl-2,5-dihydro-1H-[1]benzopyrano[3,4-f]quinoline [Example 291] |  |  | Ki [1]: 592 nM; Ki ([2]; read-out: Ki (nM) GR): 8.1 nM
6 | COc1cccc2c1-c1ccc3c(c1C(C1C=CCC(C)(C)C1)O2)C(C)=CC(C)(C)N3 (mixture of isomers) [Example 133] | 4870 nM | 3.6 nM | 
7 | COc1cccc2c1-c1ccc3c(c1C(C1C=CCCC1)O2)C(C)=CC(C)(C)N3 (mixture of isomers) [Example 137] | 2410 nM |  | Ki ([2]; Ki (nM) GR): 5.5 nM
8 | C=C1CCCCC1C1Oc2cccc(OC)c2-c2ccc3c(c21)C(C)=CC(C)(C)N3 (mixture of isomers) [Example 141, 2,5-Dihydro-10-methoxy-5-(1-methylene-2-cyclohexyl)-2,2,4-trimethyl-1H-[1]benzopyrano[3,4-f]quinoline] | ≥ 10000 nM |  | Ki ([2]; Ki (nM) GR): 10 nM
9 | COc1cccc2c1-c1ccc3c(c1C(CC(O)CO)O2)C(C)=CC(C)(C)N3 (mixture of isomers) [Example 174, 2,5-Dihydro-10-methoxy-5-(1,2-dihydroxy-3-propyl)-2,2,4-trimethyl-1H-[1]benzopyrano[3,4-f]quinoline] | ≥ 10000 nM | 270 nM | 
10 | COc1c(O)ccc2c1-c1ccc3c(c1C(C1C=CCCC1)O2)C(C)=CC(C)(C)N3 (racemic) [Example 236] | 36.2 nM | 0.89 nM | 
11 | CCCC1Oc2cccc(OC)c2-c2ccc3c(c21)C(C)=CC(C)(C)N3 (centres unmarked) [Example 54, 2,5-Dihydro-10-methoxy-2,2,4-trimethyl-5-propyl-1H-[1]benzopyrano[3,4-f]quinoline] |  | 6.6 nM | 
12 | C#CCC1Oc2cccc(OC)c2-c2ccc3c(c21)C(C)=CC(C)(C)N3 (centres unmarked) [Example 66, 2,5-Dihydro-10-methoxy-2,2,4-trimethyl-5-(2-propynyl)-1H-[1]benzopyrano[3,4-f]quinoline] |  | 2.7 nM | 
13 | COc1cccc2c1-c1ccc3c(c1C(CN)O2)C(C)=CC(C)(C)N3 (centres unmarked) [Example 206A, 2,5-Dihydro-10-methoxy-5-(aminomethyl)-2,2,4-trimethyl-1H-[1]benzopyrano[3,4-f]quinoline] |  | 4190 nM | 
14 | COc1c(O)ccc2c1-c1ccc3c(c1[C@@H](C1CCCC1)O2)C(C)=CC(C)(C)N3 [Example 265, (+)(R)5-Cyclopentyl-2,5-dihydro-9-hydroxy-10-methoxy-2,2,4-trimethyl-1H-[1]benzopyrano[3,4-f]quinoline] |  | 767 nM | 
15 | C=CC1Oc2cccc(OC)c2-c2ccc3c(c21)C(C)=CC(C)(C)N3 (centres unmarked) [Example 320, 2,5-Dihydro-10-methoxy-5-ethenyl-2,2,4-trimethyl-1H-[1]benzopyrano[3,4-f]quinoline] | 3050 nM |  | 
16 | COc1cccc2c1-c1ccc3c(c1[C@H]([C@@H]1C=CCCC1)O2)C(C)=CC(C)(C)N3 [Example 391, (−)(5S,3′S)2,5-Dihydro-10-methoxy-2,2,4-trimethyl-5-(cyclohexen-3-yl)-1H-[1]benzopyrano[3,4-f]quinoline] |  |  | Ki ([2]; Ki (nM) GR, GRX cytosol expressed in insect SF21 cells, [3H]-Dex ~0.9 nM, 4° C. overnight, Ki by Cheng-Prusoff, KL ~[…]): 1.7 nM

More lines, main results first:

Row | Ki [1, 3] | Ki [2, 4] | Compound | further results
17 |  | 24 nM | COc1cccc2c1-c1ccc3c(c1C(C=C(C)C)O2)C(C)=CC(C)(C)N3 (centres unmarked) [Example 324, 2,5-Dihydro-10-methoxy-5-(2-methylpropenyl)-2,2,4-trimethyl-1H-[1]benzopyrano[3,4-f]quinoline] | 
18 | 192 nM |  | C=CCC1Oc2cccc(CO)c2-c2ccc3c(c21)C(C)=CC(C)(C)N3 (centres unmarked) [Example 329, 2,5-Dihydro-10-(2-hydroxymethyl)-5-(3-propenyl)-2,2,4-trimethyl-1H-[1]benzopyrano[3,4-f]quinoline] | 
19 | 53 nM |  | C=CCC1Oc2cccc(C=O)c2-c2ccc3c(c21)C(C)=CC(C)(C)N3 (centres unmarked) [Example 330, 2,5-Dihydro-10-formyl-5-(3-propenyl)-2,2,4-trimethyl-1H-[1]benzopyrano[3,4-f]quinoline] | 
20 | 98 nM |  | COc1c(O)ccc2c1-c1ccc3c(c1/C(=C/c1ccccc1)O2)C(C)=CC(C)(C)N3 [Example 365, Z-5-(Benzylidenyl)-9-hydroxy-10-methoxy-2,2,4-trimethyl-1H-2,5-dihydro] | 
21 | 7.6 nM |  | CC1=CC(C)(C)Nc2ccc3c(c21)/C(=C/c1cccc(F)c1)Oc1ccc(O)c(Cl)c1-3 [Example 367, Z-5-(3-Fluorobenzylidenyl)-10-chloro-9-hydroxy-2,2,4-trimethyl-2,5-dihydro-1H-[1]benzopyrano[3,4-f]quinoline] | 
22 | 150 nM |  | COc1c(O)ccc2c1-c1ccc3c(c1C(Cc1cc(F)cc(F)c1)O2)C(C)=CC(C)(C)N3 (centres unmarked) [Example 382, 2,5-Dihydro-9-hydroxy-10-methoxy-2,2,4-trimethyl-5-(3-5-difluorophenylmethyl)-1H-[1]benzopyrano[3,4-f]quinoline] | 
23 | 520 nM |  | COc1cccc2c1-c1ccc3c(c1[C@H]([C@@H]1C=CCC1)O2)C(C)=CC(C)(C)N3 [Example 390, (−)(5S,3′S)2,5-Dihydro-10-methoxy-2,2,4-trimethyl-5-(cyclopenten-3-yl)-1H-[1]benzopyrano[3,4-f]quinoline] | 
24 | 589 nM |  | COc1cccc2c1-c1ccc3c(c1[C@H]([C@H]1C=CCC1)O2)C(C)=CC(C)(C)N3 [Example 393, (−)(5S,3′R)2,5-Dihydro-10-methoxy-2,2,4-trimethyl-5-(cyclopenten-3-yl)-1H-[1]benzopyrano[3,4-f]quinoline] | 
25 | 22.8 nM |  | C=CCC1Oc2c(Br)cc(O)c(Cl)c2-c2ccc3c(c21)C(C)=CC(C)(C)N3 (centres unmarked) [Example 397, 2,5-Dihydro-7-bromo-9-hydroxy-10-chloro-2,2,4-trimethyl-5-allyl-1H-[1]benzopyrano[3,4-f]quinoline] | 
26 |  | 0.68 nM | CCCC1Oc2ccc(O)c(Cl)c2-c2ccc3c(c21)C(C)=CC(C)(C)N3 (centres unmarked) [Example 411, 2,5-Dihydro-9-hydroxy-10-chloro-2,2,4-trimethyl-5-propyl-1H-[1]benzopyrano[3,4-f]quinoline] | 
27 |  | 33 nM | C=CCC1Oc2cccc(C=NO)c2-c2ccc3c(c21)C(C)=CC(C)(C)N3 (centres unmarked) [Example 446, 10-Carbaldehyde Oxime-5-(2-propenyl)-2,5-dihydro-2,2,4-trimethyl-1H-[1]benzopyrano[3,4-f]quinoline] | 
28 |  | 7100 nM | C=CCC1Oc2cccc(OCc3ccccc3)c2-c2ccc3c(c21)C(C)=CC(C)(C)N3 (centres unmarked) [Example 447, 10-Benzyloxy-5-(2-propenyl)-2,5-dihydro-2,2,4-trimethyl-1H-[1]benzopyrano[3,4-f]quinoline] | 
